Experimental data: PubChem BioAssay (NCI)
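These data come from cells grown in 96-well plates and exposed to compound for 48 hours at five concentrations. TGI is the concentration that stops growth completely.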

How the values were obtained:
Test in all cases: growth of human tumour cells (NCI), 48 h
786-0 renal = system: 786-0 renal
A498 renal = system: A498 renal
A549 NSCLC = system: A549 NSCLC
ACHN renal = system: ACHN renal
BT-549 breast = system: BT-549 breast
CAKI-1 renal = system: CAKI-1 renal
CCRF-CEM leukemia = system: CCRF-CEM leukemia
COLO 205 colon = system: COLO 205 colon
DU-145 prostate = system: DU-145 prostate
EKVX NSCLC = system: EKVX NSCLC
HCC-2998 colon = system: HCC-2998 colon
HCT-116 colon = system: HCT-116 colon
HCT-15 colon = system: HCT-15 colon
HL-60(TB) leukemia = system: HL-60(TB) leukemia
HOP-62 NSCLC = system: HOP-62 NSCLC
HOP-92 NSCLC = system: HOP-92 NSCLC
HS 578T breast = system: HS 578T breast
HT29 colon = system: HT29 colon
IGROV1 ovarian = system: IGROV1 ovarian
K-562 leukemia = system: K-562 leukemia
KM12 colon = system: KM12 colon
LOX IMVI melanoma = system: LOX IMVI melanoma
M14 melanoma = system: M14 melanoma
MALME-3M melanoma = system: MALME-3M melanoma
MCF7 breast = system: MCF7 breast
MDA-MB-231 breast = system: MDA-MB-231 breast
MDA-MB-435 = system: MDA-MB-435
MDA-N = system: MDA-N
MOLT-4 leukemia = system: MOLT-4 leukemia
NCI-H226 lung = system: NCI-H226 lung
NCI-H23 lung = system: NCI-H23 lung
NCI-H460 lung = system: NCI-H460 lung
NCI-H522 lung = system: NCI-H522 lung
NCI/ADR-RES ovarian = system: NCI/ADR-RES ovarian
OVCAR-3 ovarian = system: OVCAR-3 ovarian
OVCAR-4 ovarian = system: OVCAR-4 ovarian
OVCAR-5 ovarian = system: OVCAR-5 ovarian
OVCAR-8 ovarian = system: OVCAR-8 ovarian
PC-3 prostate = system: PC-3 prostate
RPMI-8226 leukemia = system: RPMI-8226 leukemia
RXF 393 renal = system: RXF 393 renal
SF-268 CNS = system: SF-268 CNS
SF-295 CNS = system: SF-295 CNS
SK-MEL-28 melanoma = system: SK-MEL-28 melanoma
SK-MEL-5 melanoma = system: SK-MEL-5 melanoma
SK-OV-3 ovarian = system: SK-OV-3 ovarian
SN12C renal = system: SN12C renal
SNB-19 CNS = system: SNB-19 CNS
SNB-75 CNS = system: SNB-75 CNS
SW-620 colon = system: SW-620 colon
T-47D breast = system: T-47D breast
TK-10 renal = system: TK-10 renal
U251 CNS = system: U251 CNS
UACC-257 melanoma = system: UACC-257 melanoma
UACC-62 melanoma = system: UACC-62 melanoma
UO-31 renal = system: UO-31 renal

Measured: TGI

COc1ccc(CC(N)c2ccc(OC)cc2)cc1 (stereo unspecified)
83 µM: RPMI-8226 leukemia
35 µM: HCC-2998 colon
36.9 µM: COLO 205 colon
> 100 µM: all other assays above
